Test results published in publication PMC12801676, “Guanidino compounds with native GABA(A) δ receptor selectivity: a tale of homeostatic compensation in δ-KO mice” (BMC Neuroscience, 2025).
Where “and” joins values, the source holds several entries; their conditions need not be identical. Equal values may be shown once. Read-outs that look alike come from different tables or passages of the source.

Key:
[1] = system: native GABARs in δ-KO cerebellar granule cells (CGCs); assay: Whole-cell patch clamp of δ-KO cerebellar granule cells in brain slices, cumulative concentration-response; assay type: cell-based, mouse; conditions: mean ± SEM; for δ-KO Imax: maximal evoked current at saturating agonist concentration; for EC50: steady-state currents at -70 mV, Hill fit
[2] = biological target: GABARs in δ-KO mouse forebrain membranes; assay: [3H]muscimol displacement, δ-KO forebrain membranes; assay type: binding; conditions: for IC50: δ-KO forebrain membranes, room temperature, mean ± SD
Experimental: (§1) Brain (sans cerebellum) membranes from WT and δ-KO mice were prepared as described and stored frozen at -70 °C. After thawing, membranes were washed once in assay buffer (50 mM Tris-HCl, pH 7.4) and incubated for 40 min with 5 nM [^3H]muscimol in assay buffer in a total volume of 300 µl at room temperature. […] Three milliliters of Optiphase HiSafe 3 scintillation fluid (Wallac, Turku, Finland) were added to air-dried filters and GABAR bound [^3H]muscimol radioactivity determined in a Hidex 600 SL liquid scintillation counter (Hidex, Turku, Finland).

[3] = system: native GABARs in WT cerebellar granule cells (CGCs); assay: Whole-cell patch clamp of WT cerebellar granule cells in brain slices, cumulative concentration-response; conditions: for WT Imax / WT slope (Hill slope) / EC50: WT CGCs, mean ± SEM; for WT Imax: maximal evoked current at saturating agonist concentration; for EC50: read-out: WT EC50, steady-state currents at -70 mV, Hill fit; for CGC GABAR activity: concentrations up to 1 mM
[4] = biological target: GABARs in WT mouse forebrain membranes; assay: [3H]muscimol displacement, WT forebrain membranes; assay type: binding; conditions: for IC50: 5 nM [3H]muscimol; for [3H]muscimol (5 nM) displacement: concentrations up to 0.3 mM, mouse forebrain
Experimental: as §1

taurine transporter = system: taurine transporter; parameters: method as in PMID 512911; conditions: ref [24]; read-out: Km as taurine transporter substrate; cited from earlier work
creatine transporter = system: creatine transporter; parameters: method as in PMID 35837012; conditions: recombinant (HEK) cell expression; ref [20]; cited from earlier work
[5] = system: recombinantly expressed γ2-GABARs; parameters: method as in PMID 9396785; conditions: ref [48], read-out: functional (EC50) muscimol responses; cited from earlier work
α4β3δ receptors = biological target: α4β3δ receptors; parameters: method as in PMID 30565258; conditions: ref [36], read-out: functional muscimol EC50; cited from earlier work
[6] = WT forebrain membranes, room temperature, mean ± SD, read-out: IC50 for [3H]muscimol displacement, WT

| Structure (SMILES) | δ-KO Imax [1] [pA] | δ-KO slope (Hill slope) [1] | EC50 [1] | IC50 ([2]; 5 nM [3H]muscimol) [µM] | WT Imax [3] [pA] | WT slope (Hill slope) [3] | EC50 [3] | IC50 [4, 6] | other results |
| --- | --- | --- | --- | --- | --- | --- | --- | --- | --- |
| [H]/N=C(/N)NCC(=O)O [GAA, guanidinoacetate] | -50 ± 10 | 0.94 ± 0.1 | 14 ± 2 µM | 2.5 ± 0.3 | -60 ± 18 | 1.1 ± 0.16 | 4.4 ± 0.9 µM | 3.1 ± 0.7 µM |  |
| NCCCC(=O)O [GABA, γ-aminobutyrate] | -65 ± 18 | 1.1 ± 0.1 |  |  | -66 ± 5 | 1.5 ± 0.3 |  |  |  |
| NC(N)=NCCS(=O)(=O)O [GES, guanidinoethanesulfonate] | -29 ± 6 | 0.83 ± 0.2 | 72 ± 10 µM | 35 ± 4 | -35 ± 7 | 0.89 ± 0.3 | ~32 µM and 32 µM | 36 ± 7 µM | Km (taurine transporter): ~150 µM |
| NCc1cc(=O)[nH]o1 [[^3H]muscimol, [Methylene-^3H]muscimol, reference compound] |  |  |  |  |  |  |  |  | reduction of [3H]muscimol binding in δ-KO forebrain compared with WT ([2]; 5 nM [3H]muscimol, forebrain): ~ 50%; 5 nM [3H]muscimol binding, δ-KO ([2]; δ-KO forebrain, specific binding normalized to protein): 140 ± 5 fmol/mg protein; 5 nM [3H]muscimol binding, WT ([4]; WT forebrain, specific binding normalized to protein): 265 ± 7 fmol/mg protein |
| N=C(N)NCCC[C@H](N)C(=O)O [arginine] |  |  |  |  |  |  |  |  | CGC GABAR activity [3]: absence of detectable CGC GABAR activity; [3H]muscimol (5 nM) displacement [4]: absence of [^3H]muscimol (5 nM) displacement |
| CN(CC(=O)O)C(=N)N [creatine] |  |  |  |  |  |  |  |  | EC50 (creatine transporter): ~35 µM; CGC GABAR activity [3]: absence of detectable CGC GABAR activity; [3H]muscimol (5 nM) displacement [4]: absence of [^3H]muscimol (5 nM) displacement |
| COc1ccc(-c2ccc(=N)n(CCCC(=O)O)n2)cc1 [gabazine, Gabazine, reference compound] |  |  |  |  |  |  |  |  | block of agonist-evoked CGC currents ([3]; currents evoked by GAA, β-GPA, γ-GBA, GES in WT and δ-KO CGCs): completely blocked |
| NCc1cc(=O)[nH]o1 [muscimol] |  |  |  |  |  |  |  |  | EC50 [5]: 1 to 10 µM; EC50 (α4β3δ receptors): ~0.001 µM |
| N=C(N)NCCCC(=O)C(=O)O [α-K-δ-GVA, α-Keto-δ-guanidinovalerate] |  |  |  |  |  |  |  |  | CGC GABAR activity [3]: absence of detectable CGC GABAR activity; [3H]muscimol (5 nM) displacement [4]: absence of [^3H]muscimol (5 nM) displacement |
| [H]/N=C(\N)NCCC(=O)O [β-GPA, β-guanidinopropionate] | -74 ± 19 | 1.3 ± 0.2 | 8 µM and 8.2 µM | 3.6 ± 0.6 | -45 ± 9 | 0.85 ± 0.1 | 3.2 ± 0.6 µM | 3.8 µM and ~4 µM | EC50 (creatine transporter): ~13 µM |
| N=C(N)NCCCC(=O)O [γ-GBA, γ-guanidinobutyrate] | -32 ± 7 | 0.95 ± 0.1 | 219 ± 11 µM | 26 ± 5 | -75 ± 12 | 0.81 ± 0.1 | ~44 µM and 44 µM | 8.5 ± 0.9 µM | IC50 ([4]; δ-KO values subtracted from WT values, read-out: δ-specific (WT minus δKO) displacement IC50): 3.5 ± 1.2 µM |
